The target of experiment [1] is T1, CXXC5-DVL interaction (Homo sapiens, UniProt O14640).
T1 sequence (O14640 251-323 limits assumed): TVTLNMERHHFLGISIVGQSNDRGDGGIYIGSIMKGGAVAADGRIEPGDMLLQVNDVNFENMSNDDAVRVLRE
Put plainly: in vitro CXXC5-DVL PPI inhibition screening assay (FITC-tagged PTD-DBMP on DVL-PDZ, fluorescence). Type of experiment: binding. The method, then: Screening for compounds that inhibit the CXXC5-DVL interaction. […] CELL. DEATH. DIFFER. […] After the addition of 10 μM FITC-tagged PTD-DBMP to each well, each compound in the chemical library or control (DMSO) was treated to the well at a final concentration of 30 μM. The fluorescence intensity was measured using a Fluorstar Optima microplate reader (BGM Lab Technologie, Ortenberg, Germany) and normalized as follows: “(‘compounds-treated group’−‘blank’)/(‘DMSO-treated control’−‘blank’)*100”.

For experiment [2], the system named is MCD-induced NASH mice. Briefly: MCD diet-induced NASH mice. Conditions: MCD diet 7 weeks; for hepatosteatosis (H&E): then 25 mg/kg daily oral gavage 3 weeks. It counts as in vivo. The procedure:
NASH study. Eight-week-old wild-type male C57BL/6N mice (KOATECH, Seoul, Korea) were fed on the methionine-choline deficient (MCD) diet for 7 weeks, followed by treatment with vehicle, A3334, A3051, or I3O of (25 mg kg^−1) sitagliptin (25 mg kg^−1) for another 3 weeks via daily oral gavage.
Collagen staining. 4 µm-liver tissues sections were stained using two common collagen staining methods. For Masson's trichrome staining, slides were fixed in Bouin's solution for 1 h. After incubation in Weigert's iron hematoxylin solution for 10 min, the slides were stained with Biebrich Scarlet-Acid Fuchsin and Aniline blue for 5 min. The collagen fibers were stained blue and the nuclei were stained black. For picrosirius red staining, sections were stained with Weigert's solution for 8 min and picrosirius red for 1 h. The collagen fibers were stained red with blue nuclei.

Experiment [3] concerns 3T3-L1 preadipocytes. Briefly: adipocyte differentiation of 3T3-L1 preadipocytes, Oil Red O staining. Type of experiment: cell-based. The procedure:
Cell culture and adipocyte differentiation. 3T3-L1 cells were seeded in six-well plates at a density of 3×10^4 cells per well. The cells were grown in Dulbecco's modified Eagle medium (DMEM) with 10% bovine calf serum (Gibco) until confluent. After confluence, cells were induced to differentiate in DMEM containing 10% fetal bovine serum (FBS; Gibco) and MDI (520 μM methylisobutylxanthine (IBMX; Sigma-Aldrich), 1 μM dexamethasone (Sigma-Aldrich), and 167 nM insulin (Gibco)) with or without A3334. On day 4, the medium was replaced with DMEM containing 10% FBS and 167 nM insulin with or without A3334 and changed with fresh identical medium every 2 days up to day 14 post-induction. Cells were incubated at 37° C. in a 5% CO2 environment.
Oil Red O staining. […] For the quantification of lipid contents, the Oil Red O was eluted by the addition of 500 μl isopropanol containing 4% nonidet P-40 to each well and the absorbance was measured spectrophotometrically at 590 nm.
ORO staining. […] In the morning each well was washed thoroughly with water and images of the ORO staining were recorded with a Nikon bright-field optical microscope (Nikon TE-2000U, Tokyo, Japan) and quantified for further statistical analysis. For quantify lipid contents, the ORO was eluted by addition of 500 µl isopropanol containing 4% nonidet P-40 to each well and the absorbance was measured spectrophotometrically at 590 nm. […]

The subject of experiment [4] is HFD-induced obese mice. Briefly: HFD-induced obese mice, oral administration during 16 weeks of HFD. Conditions: HFD 16 weeks. Type of experiment: in vivo. The method, then:
Anti-obesity effects of […], a small molecule […] inhibitor. Referring now to FIG. 34, C57BL/6N mice were fed HFD for 16 weeks with or without oral administration of 25 mpk […] or Orlistat. Orlistat is an anti-obesity drug that is thought to act by limiting the absorption of fats from the diet (e.g., a lipase inhibitor). […] Referring now to FIG. 35, The C57BL/6N mice were grown with HFD for 16 weeks with or without oral administration of 25 mpk of […], […], and I3O. […] The increase in adipocyte cell sizes and enhancement of inflammation (evaluated by crown like structures; blue; FIG. 35B) were suppressed by treatment with […] in the HFD mice.

The target in experiment [5] is T1, CXXC5-DVL interaction. Briefly: Dvl-CXXC5 in vitro binding assay, (PTD-DBMP)-(PZD-DVL), concentration dependent.
[6] abbreviates: FIG. 33A-33C, unit inferred, read-out: IC50, in vitro (PTD-DBMP)-(PZD-DVL) binding analyses.

Each structure is given as a SMILES string. Entries after “also recorded” stand apart in the source; their conditions may differ. Like-named read-outs stand apart in the source and are kept apart here.

This note sets out measurements from patent publication US20240425457A1, “COMPOSITIONS AND METHODS FOR SUPPRESSING AND/OR TREATING METABOLIC DISEASES AND/OR A CLINICAL CONDITION THEREOF” (CK Biotech Inc., priority 2018, published 2024).

As for `CO/N=C1/C(=C2/C(=O)Nc3cc(Cl)c(Cl)cc32)Nc2ccccc21` [Compound A3051, 5,6-dichloroindirubin-3′-methoxime], the “inhibition of CXXC5-DVL interaction (in words)” value in experiment [1] was “effectively inhibited interaction between CXXC5 and DVL”. Further, the “hepatosteatosis (H&E)” value in experiment [2] is recorded as “also reduced hepatosteatosis, but revealed only marginal effects compared to A3334”. The “adipogenic differentiation of 3T3-L1 preadipocytes” value in experiment [3] is “significant anti-differentiation effects”. Besides, the “adipocyte cell size and inflammation (crown like structures)” value in experiment [4] (25 mpk oral) was “showed reduction in adipocyte size and anti-inflammatory effects, but those effects were lower when compared to that of the A3334 treatment”. Also, in experiment [5] (setting [6]), the IC50 (usually the midpoint of a concentration-inhibition curve) was 7.71 nM.

`COc1ccc2c(c1)/C(=C1/Nc3ccccc3/C1=N\O)C(=O)N2` [Compound A3334, 5-Methoxyindirubin-3′-oxime]: the “inhibition of CXXC5-DVL interaction (in words)” value in experiment [1] was “effectively inhibited interaction between CXXC5 and DVL”. Further, in experiment [2] (then 25 mg/kg daily 3 weeks), the “ALT and AST levels” value is listed as “mostly abolished by A3334 treatment”; the “FFAs and TG in serum” value was “mostly abolished with A3334 treatment”; the “fibrosis, histological analyses” value was “improvement of the MCD-diet induced fibrosis by A3334”; the “liver mRNA of pro-inflammation, FA oxidation, apoptosis and fibrosis markers” value is “significantly reduced by A3334”. Besides, in experiment [2], the “hepatosteatosis (H&E)” value is reported as “significantly abolished by A3334 co-treatment”. Further, in experiment [3], the “adipogenic differentiation of 3T3-L1 preadipocytes” value is “efficiently inhibited the adipogenic differentiation of 3T3-L1 preadipocytes; also recorded: significant anti-differentiation effects”. Moreover, in experiment [4] (25 mpk oral), the “HFD-induced body weight gain and abdominal obesity” value was “not observed in the HFD mice treated with A3334”; the “adipocyte cell size and inflammation (crown like structures)” value is reported as “suppressed by treatment with A3334”; the “fatty liver and white adipocyte tissue” value was “suppression of fatty liver and white adipocyte tissue”; the “glucose tolerance (GTT) and insulin tolerance (ITT)” value is “significantly improved by the A3334 treatment”. Further, in experiment [4] (25 mpk oral), the “triglyceride, total cholesterol, HDL-cholesterol” value is “significantly reduced the level of triglyceride and total cholesterol and increased the level of HDL-cholesterol”. Further, in experiment [4] (both 25 mpk), the “inhibitory effect on weight gain compared with orlistat” value was “much more significant than the effects observed in the HFD mice treated with orlistat”. For the same compound, the IC50 in experiment [5] (FIG. 10B, read-out: CXXC5-Dvl PPI inhibition IC50) amounted to 63.1 nM. The IC50 in experiment [5] (setting [6]) was determined as 25.8 nM.
